{
  "source": "paper PMC7460285",
  "about": "“OctoPartenopin: Identification and Preliminary Characterization of a Novel Antimicrobial Peptide from the Suckers of Octopus vulgaris” (Marine Drugs, 2020)",
  "key": {"P. aeruginosa ATCC 9027 [1]": {"system": "P. aeruginosa ATCC 9027", "assay": "Agar diffusion assay (inhibition zone diameter)", "type": "cell-based, Pseudomonas aeruginosa", "design": "key: R: Resistant; I: Intermediate; S: Sensitive", "details": "5 μg ampicillin, 5 μg gentamicin, 37 °C, 24 h", "method": "(§1) Microorganisms used for this study were as follows: Staphylococcus aureus ATCC 6538, Pseudomonas aeruginosa ATCC 9027, and Candida albicans ATCC 90028. Microorganisms were routinely cultured in tryptic soy broth (TSB) supplemented with 0.1% glucose, at 37 °C, for 18 h prior to experiments, and corresponding cell concentration was adjusted to 10^6 CFU mL^−1 by optical density at 600 nm. Stock cultures were maintained in trypticase soy agar (TSA) and Sabouraud dextrose agar containing glycerol at −80 °C.\n(§2) For antimicrobial testing, the agar disc diffusion method was used and the antimicrobial susceptibility was detected by analyzing the inhibition zones, measured and compared according to the standards set by the CLSI [106], which classify the strains as sensitive (S), intermediate (I), or resistant (R). All tests were performed in duplicate, and the antimicrobial activity was expressed as the mean of inhibition diameters (mm, ±standard deviation, SD) produced by the extracts.\n(§3) Microorganisms were cultivated overnight and a suspension containing 10^6 CFU mL^−1 was spread on plates containing TSA or Sabouraud agar. Holes of approximately 5 × 3 mm were made in the agar and were filled with 30 μL of the extract stock solution (1 mg/mL). After incubation at 37 °C for 24 h, inhibition zones were measured in millimeters and compared to the controls. […]"}, "S. aureus ATCC 6538 [2]": {"system": "S. aureus ATCC 6538", "assay": "Agar diffusion assay (inhibition zone diameter)", "type": "cell-based, Staphylococcus aureus", "design": "key: R: Resistant; I: Intermediate; S: Sensitive", "details": "5 μg ampicillin, 5 μg gentamicin, 37 °C, 24 h", "method": "as §1, §2, §3"}, "S. aureus ATCC 6538 [3]": {"system": "S. aureus ATCC 6538", "assay": "Broth microdilution MIC determination", "type": "cell-based, Staphylococcus aureus", "details": "80% inhibition of growth in liquid medium (TSB), 37 °C, 18 h, mean of three replicates ± SD", "method": "as §1, with “°C. The minimum inhibitory concentration (MIC) determination was conducted as described in our previous papers. Briefly, microbes were inoculated in TSB and incubated at 37 °C to the exponential phase. Then, the inoculum was diluted with fresh TSB to 10^6 CFU/mL, and 50 μL microbial dilutions were mixed with serial dilutions of fractions or peptides (50 μL) in 96-well microtiter plates.” for “°C.”"}, "C. albicans biofilm": {"system": "C. albicans biofilm", "type": "cell-based, Candida albicans", "details": "24 h", "method": "The microorganism’s ability to form biofilm was determined using the method previously described in our laboratory. Bacterial and fungal biofilm prevention and eradication assays were performed based on our published protocols. Synthetized peptides (P0–P4) were tested at sub-MIC concentrations ranging from 10 to 80 μM in triplicate in both assays. For the prevention of biofilm formation, diluted cultures of each strain were added to 96-well plates and incubated with peptides (at concentrations ranging from 10 to 80 μM) at 30 °C, for 24 h. For the eradication of mature biofilm, diluted cultures of C. albicans and two bacteria were added to 96-well plates and incubated at 30 °C. After 24 h, the planktonic cells and medium were aspirated from the wells and fresh medium was added to the well, followed by peptides at the same concentrations. Plates were incubated at 30 °C, for an additional 24 h. […] The OD of each well was measured at 550 nm with a microplate reader. The same formula described above was used to quantify the biofilm biomass forming when the incubation was done with peptides or when remaining after incubation with peptides. The percentage of biofilm inhibition and eradication was determined by the formula: biofilm reduction % = OD control − OD sample/OD control × 100%."}, "[4]": {"system": "mature biofilms of S. aureus, P. aeruginosa, and C. albicans", "assay": "Mature biofilm eradication assay, crystal violet", "type": "cell-based", "details": "preformed 24 h biofilm, peptide 10 to 80 μM for 24 h, 30 °C; for Dispersion (clearance) of mature biofilm biomass: strain and concentration not stated for the values (Figure 4)", "method": "The microorganism’s ability to form biofilm was determined using the method previously described in our laboratory. Bacterial and fungal biofilm prevention and eradication assays were performed based on our published protocols. Synthetized peptides (P0–P4) were tested at sub-MIC concentrations ranging from 10 to 80 μM in triplicate in both assays. For the prevention of biofilm formation, diluted cultures of each strain were added to 96-well plates and incubated with peptides (at concentrations ranging from 10 to 80 μM) at 30 °C, for 24 h. For the eradication of mature biofilm, diluted cultures of C. albicans and two bacteria were added to 96-well plates and incubated at 30 °C. After 24 h, the planktonic cells and medium were aspirated from the wells and fresh medium was added to the well, followed by peptides at the same concentrations. Plates were incubated at 30 °C, for an additional 24 h. For both above mentioned assays, the planktonic cells and medium were aspirated at the end of the final incubation period, and wells were washed twice with PBS. The residual attached biofilms were fixed with 95% v/v ethanol per well and, after 20 min, plates were emptied and left to dry. Plates were stained for 15 min with 0.1% w/v crystal violet. Excess stain was then removed by rinsing the plate with PBS. The plates were allowed to dry, and the crystal violet-stained biofilm was solubilized with 200 μL of 30% v/v glacial acetic acid per well. The OD of each well was measured at 550 nm with a microplate reader. The same formula described above was used to quantify the biofilm biomass forming when the incubation was done with peptides or when remaining after incubation with peptides. The percentage of biofilm inhibition and eradication was determined by the formula: biofilm reduction % = OD control − OD sample/OD control × 100%."}, "P. aeruginosa ATCC 9027 [5]": {"system": "P. aeruginosa ATCC 9027", "assay": "Broth microdilution MIC determination", "type": "cell-based, Pseudomonas aeruginosa", "details": "80% inhibition of growth in liquid medium (TSB), 37 °C, 18 h, mean of three replicates ± SD", "method": "as §1, with “°C. The minimum inhibitory concentration (MIC) determination was conducted as described in our previous papers. Briefly, microbes were inoculated in TSB and incubated at 37 °C to the exponential phase. Then, the inoculum was diluted with fresh TSB to 10^6 CFU/mL, and 50 μL microbial dilutions were mixed with serial dilutions of fractions or peptides (50 μL) in 96-well microtiter plates.” for “°C.”"}, "C. albicans ATCC 90028 [6]": {"system": "C. albicans ATCC 90028", "assay": "Broth microdilution MIC determination", "type": "cell-based, Candida albicans", "details": "80% inhibition of growth in liquid medium (TSB), 37 °C, 18 h, mean of three replicates ± SD", "method": "as §1, with “°C. The minimum inhibitory concentration (MIC) determination was conducted as described in our previous papers. Briefly, microbes were inoculated in TSB and incubated at 37 °C to the exponential phase. Then, the inoculum was diluted with fresh TSB to 10^6 CFU/mL, and 50 μL microbial dilutions were mixed with serial dilutions of fractions or peptides (50 μL) in 96-well microtiter plates.” for “°C.”"}, "C. albicans ATCC 90028 [7]": {"system": "C. albicans ATCC 90028", "assay": "Agar diffusion assay (inhibition zone diameter)", "type": "cell-based, Candida albicans", "design": "key: R: Resistant; I: Intermediate; S: Sensitive", "details": "1 μg amphotericin B, 37 °C, 24 h", "method": "as §1, §2, §3"}},
  "note": "Ends that are not written are not given here.",
  "data": [
    {"molecule": "CNC(C)C1CCC(N)C(OC2C(N)CC(N)C(OC3OCC(C)(O)C(NC)C3O)C2O)O1", "note": "(stereo not shown) [G, Gentamicin]", "values": [
      {"measurement": "Susceptibility class to positive control (CLSI interpretative chart)", "setting": "P. aeruginosa ATCC 9027 [1]", "value": "S"},
      {"measurement": "Susceptibility class to positive control (CLSI interpretative chart)", "setting": "S. aureus ATCC 6538 [2]", "value": "S"}
    ]},
    {"molecule": "QAGSNKGASQKGMS-NH2 [P2]", "values": [
      {"measurement": "MIC80 synthetized peptides", "setting": "S. aureus ATCC 6538 [3]", "value": "50 ± 5", "unit": "µM"},
      {"measurement": "Inhibition rate of biofilm formation", "setting": "C. albicans biofilm", "value": "about 40%"},
      {"measurement": "Dispersion (clearance) of mature biofilm biomass", "setting": "[4]", "value": "~90", "unit": "%"},
      {"measurement": "MIC80 synthetized peptides", "setting": "P. aeruginosa ATCC 9027 [5]", "value": "50 ± 2", "unit": "µM"},
      {"measurement": "MIC80 synthetized peptides", "setting": "C. albicans ATCC 90028 [6]", "value": "100 ± 3", "unit": "µM"}
    ]},
    {"molecule": "EGQGVISLQAGTNK-NH2 [P3]", "values": [
      {"measurement": "MIC80 synthetized peptides", "setting": "S. aureus ATCC 6538 [3]", "value": "80 ± 1", "unit": "µM"},
      {"measurement": "Dispersion (clearance) of mature biofilm biomass", "setting": "[4]", "value": "~80", "unit": "%"},
      {"measurement": "MIC80 synthetized peptides", "setting": "P. aeruginosa ATCC 9027 [5]", "value": "50 ± 3", "unit": "µM"},
      {"measurement": "MIC80 synthetized peptides", "setting": "C. albicans ATCC 90028 [6]", "value": "100 ± 4", "unit": "µM"}
    ]},
    {"molecule": "AGTNK-NH2 [P0]", "values": [
      {"measurement": "MIC80 synthetized peptides", "setting": "S. aureus ATCC 6538 [3]", "value": "150 ± 2", "unit": "µM"},
      {"measurement": "Dispersion (clearance) of mature biofilm biomass", "setting": "[4]", "value": "about 70%"},
      {"measurement": "MIC80 synthetized peptides", "setting": "P. aeruginosa ATCC 9027 [5]", "value": "200 ± 3", "unit": "µM"},
      {"measurement": "MIC80 synthetized peptides", "setting": "C. albicans ATCC 90028 [6]", "value": "200 ± 3", "unit": "µM"}
    ]},
    {"molecule": "QAGTNK-NH2 [P1]", "values": [
      {"measurement": "MIC80 synthetized peptides", "setting": "S. aureus ATCC 6538 [3]", "value": "150 ± 3", "unit": "µM"},
      {"measurement": "Antibiofilm (eradication) activity, in words", "setting": "[4]", "value": "weakest antibiofilm activity"},
      {"measurement": "MIC80 synthetized peptides", "setting": "P. aeruginosa ATCC 9027 [5]", "value": "100 ± 5", "unit": "µM"},
      {"measurement": "MIC80 synthetized peptides", "setting": "C. albicans ATCC 90028 [6]", "value": "200 ± 5", "unit": "µM"}
    ]},
    {"molecule": "CC1(C)S[C@@H]2[C@H](NC(=O)[C@H](N)c3ccccc3)C(=O)N2[C@H]1C(=O)O", "note": "[AMP, Ampicillin]", "values": [
      {"measurement": "Susceptibility class to positive control (CLSI interpretative chart)", "setting": "P. aeruginosa ATCC 9027 [1]", "value": "R"},
      {"measurement": "Susceptibility class to positive control (CLSI interpretative chart)", "setting": "S. aureus ATCC 6538 [2]", "value": "S"}
    ]},
    {"molecule": "GEGIIGLQAGTNKFASQIGMKIGAVRHIADIR-NH2 [P4]", "values": [
      {"measurement": "MIC80 synthetized peptides", "setting": "S. aureus ATCC 6538 [3]", "value": "80 ± 5", "unit": "µM"},
      {"measurement": "MIC80 synthetized peptides", "setting": "P. aeruginosa ATCC 9027 [5]", "value": "50 ± 2", "unit": "µM"},
      {"measurement": "MIC80 synthetized peptides", "setting": "C. albicans ATCC 90028 [6]", "value": "180 ± 5", "unit": "µM"}
    ]},
    {"molecule": "C[C@@H]1[C@H](O)[C@@H](C)/C=C/C=C/C=C/C=C/C=C/C=C/C=C/[C@H](O[C@@H]2O[C@H](C)[C@@H](O)[C@H](N)[C@@H]2O)C[C@@H]2O[C@](O)(C[C@@H](O)C[C@@H](O)[C@H](O)CC[C@@H](O)C[C@@H](O)CC(=O)O[C@H]1C)C[C@H](O)[C@H]2C(=O)O", "note": "[AMPH-B, amphotericin B]", "values": [
      {"measurement": "Susceptibility class to positive control (CLSI interpretative chart)", "setting": "C. albicans ATCC 90028 [7]", "value": "S"}
    ]}
  ]
}
